According to a melting point compilation (Tetko et al.; mined from patent text by program, amines drawn as free bases though some values may be those of a salt):

For CC(C)(N)CNC(=O)Nc1ccccc1, the melting point was 130 to 131 °C. With O=C(Oc1ccccc1)N1CCC(c2noc3cccc(F)c23)CC1 the melting point was 108 to 110 °C. CCOCc1cc2cc(Cl)ccc2oc1=Nc1ccccc1 gave a melting point of 58 to 59 °C. C1=C(c2ccccc2)SCCS1 gave a melting point of 54 to 55 °C. Molecule CC(C)(C)OC(=O)N1CCC(c2ccc(N3C[C@H](CNC(=O)C(Cl)Cl)OC3=O)cc2F)CC1 has a melting point of 168 to 170 °C. With Cc1nnc2n1N=C(c1ccc3c(c1)NC(=O)CO3)C(C)(C)S2 the melting point was 249 to 250 °C. N#CC(C(=O)c1nn(-c2ccccc2)c2c1CSc1ccccc1-2)C(=S)Nc1ccccc1 (stereo not drawn) showed a melting point of 167 to 170 °C. With OC(c1cccnn1)c1ccc(Cl)cc1Cl (stereo not drawn) the melting point was 130 to 132 °C. Fc1ccc2ncc3ncn(-c4ccccc4F)c3c2c1 showed a melting point of 162 to 163 °C. With CN1Cc2c(C(=O)NN)ncn2-c2ccc(F)cc2C1=O the melting point was 288 to 290 °C. Work on CC(C)Oc1ccc2c(c1)C(=O)c1ccc(C(=O)O)cc1CC2 yielded a melting point of 174 to 177 °C. Work on CN(N)C(=O)N=C1CCC(CC2CCC(=NC(=O)N(C)N)CC2)CC1 (stereo not drawn) yielded a melting point of 187 to 193 °C. C=C(C)CSCC(C)C1CC=C2C3=C(CCC21C)C1(C)CCC(O)C(C)(C)C1CC3 (stereo not drawn) gave a melting point of 128 to 132 °C. For O=C(C=Cc1ccc(F)cc1)C(=O)Nc1ccc(C(F)(F)F)cc1, the melting point was 200 to 201 °C. Molecule COC(=O)c1[nH]c2c(C)ccc(C)c2c1C=O has a melting point of 174 to 175 °C. Work on COc1ccc(NC(=O)c2ccc(Cl)c(Cl)c2)cc1Nc1cccc(C(F)(F)F)c1 yielded a melting point of 151 to 152 °C. For COc1ccc(C#CCCN2CCOC2=O)cc1OC, the melting point was 78 to 79 °C. Molecule CCS(=O)(=O)N1CCSc2ccccc2C1 has a melting point of 78 to 80 °C. For COC(=O)NNC(=O)CCc1ccccc1, the melting point was 118 °C. Work on CC(NC(=O)CCCl)c1ccc(Cl)cc1 (stereo not drawn) yielded a melting point of 86 to 91 °C. COC(=O)c1cc(N(C)C)c(N(C)C)c(N(C)C)c1 gave a melting point of 61 to 63 °C. Molecule O=Cc1cc([N+](=O)[O-])ccc1OCCCc1ccccc1 has a melting point of 72 to 73 °C. In the case of CS(=O)(=O)OCc1cc(-c2ccc(OCc3ccccc3)cc2)no1, the melting point is reported as 110 to 112 °C. With CCCc1nc2c(N)nc(C)c(C)c2n1CCCCCS(=O)(=O)c1ccc(Cl)cc1 the melting point was 147 to 149 °C. Molecule O=S(=O)(F)CCCCCCCc1ccc(O)cc1 has a melting point of 47 to 51 °C. Work on CCCCCCCCCCCCCCCc1ccc2c(c1)C1(O)C(=O)c3ccccc3C1(O)O2 (stereo not drawn) yielded a melting point of 105 to 110 °C. With COc1ccc2c(c1)C(NCc1cc(OC)c(OC)cc1N)CCO2 (stereo not drawn) the melting point was 90 to 92 °C. CCOC(=O)N1Cc2[nH]c3ccc(F)cc3c2C1 gave a melting point of 248 to 249 °C. Cc1ccc(S(=O)(=O)N2CCCC2c2ccc(F)cc2)cc1 (racemic) gave a melting point of 128 °C. In the case of CON=C(C(C)=C(ON)c1ccccc1C(=NOC)C(=O)OC)c1ccc(F)cc1F, the melting point is reported as 110 to 119 °C. Work on Fc1ccc(C(c2ccc(F)c(F)c2)c2ccc(F)c(F)c2)cc1F yielded a melting point of 95 to 96 °C. Work on CN1CCCC(c2ccccc2)c2[nH]c3ccccc3c2CC1 (stereo not drawn) yielded a melting point of 117 to 119 °C. Nc1c(-c2cc(Cl)ccc2O)c2ccccc2[nH]c1=O showed a melting point of 265 to 268 °C. Molecule CCOC(=O)c1c(-c2cccc(F)c2)c(Cl)n2c1CNCC2 has a melting point of 96 to 98 °C. O=C(O)C(=O)C=Cc1ccccc1F showed a melting point of 100 to 102 °C. With O=S(=O)(c1ccc(Nc2nccc(Nc3ccc(F)cc3)n2)cc1)N1CCC(C(O)c2ccncc2F)CC1 (stereo not drawn) the melting point was 140 °C. Molecule CS(=O)(=O)c1ccc(C2=C(I)C(=O)C3(CCOCC3)O2)cc1 has a melting point of 210 to 213 °C. Molecule COCCOCCOc1cc(N)c(C#N)cc1[N+](=O)[O-] has a melting point of 106 to 108 °C. For COc1ccc2oc(Cc3c(Cl)cccc3Cl)c(CC#N)c2c1, the melting point was 184 °C. O=C(Nc1c([N+](=O)[O-])cnn1-c1c(Cl)cc(C(F)(F)F)c(Cl)c1Cl)C(F)F gave a melting point of 146 to 151 °C. CC(C)(F)Cn1c(CCO)nc2c(N)nc3cccnc3c21 showed a melting point of 224 to 225 °C. Work on CC1CC(=O)c2c(C(=O)Nc3ccc(F)cc3)c[nH]c2C1 (stereo not drawn) yielded a melting point of 262 to 264 °C. CN(C)Cc1ccc(CSCCNC(=N)N[N+](=O)[O-])o1 showed a melting point of 103 to 104 °C. Molecule CCCCCCCCCCCCCCCCCCOc1cc(SC)cc(C(=O)O)c1 has a melting point of 64 to 66 °C. In the case of CC(O)CC(=O)c1cccc2c1nc(-c1c(F)cccc1F)n2Cc1c(F)cccc1F (stereo not drawn), the melting point is reported as 149 to 150 °C. Work on CCc1[nH]c(=O)[nH]c(=O)c1N1CCN(Cc2ccccc2)CC1 yielded a melting point of 255 to 256 °C. In the case of CC(=O)Nc1c(C(=O)c2ccoc2)[nH]c2cc(Cl)ccc12, the melting point is reported as 217 to 219 °C. In the case of O=C(O)c1ccccc1-c1ccc(CO)cc1, the melting point is reported as 140 to 142 °C. In the case of COC(=O)OC1C(OCc2ccccc2)C(COCc2ccccc2)OC(C)(OCc2ccccc2)C1NC(C)=O (stereo not drawn), the melting point is reported as 116 to 118 °C. COc1ccc(NC(=NC#N)NC(NC(=O)c2cccc(Cl)c2)C(C)(Cl)Cl)cn1 (stereo not drawn) showed a melting point of 189 to 190 °C. COc1cccc([C@H]2O[C@H](CC(=O)Nc3cc(OC(C)C)c4oc(C(=O)O)cc4c3)C(=O)N(CC(C)(C)CO)c3ccc(Cl)cc32)c1OC showed a melting point of 189 to 190 °C. Work on COc1ccc(NC(=O)C(Cl)Cl)cn1 yielded a melting point of 104 to 107 °C. Work on COc1ccc(C2(C)C(=O)Nc3cc(Cl)cc(Cl)c3C2=O)cc1 (stereo not drawn) yielded a melting point of 210 to 212 °C. Molecule CN(C)C=C1CC(=O)Nc2ccccc2C1=O has a melting point of 203 to 205 °C. Work on CN(C)C1(C#N)CCCCC1 yielded a melting point of 36 °C. CCOC(=O)c1cc(Br)cc2c(=O)c(OCCCN3CCN(Cc4ccc5ccccc5n4)CC3)c(-c3ccccc3)oc12 showed a melting point of 125 to 126 °C. O=C(O)Cc1c(C(=O)c2ccc(-c3nccs3)cc2)[nH]c2cc(Cl)ccc12 showed a melting point of 230 to 233 °C. CCCn1nc(CC)c(C(=O)O)c1Cc1ccc(-c2ccccc2-c2nnn[nH]2)cc1 gave a melting point of 229 °C. For COc1cc2ncc(C#N)c(Nc3ccc4cn[nH]c4c3)c2cc1OC, the melting point was 180 to 183 °C. For COc1ccc(C(=O)Nc2ccccc2)cc1NS(=O)(=O)c1cccc2c(N(C)C)cccc12, the melting point was 231 to 232 °C. Molecule CCCc1c(OCCCOc2cccc(C(=O)O)c2)ccc(C(C)=O)c1O has a melting point of 142 to 143 °C. Molecule Cc1cc(C)c(Nc2nc(C)ccc2S(=O)(=O)c2cccc(O)c2)c(C)c1 has a melting point of 196 to 197 °C. With O=c1[nH]c2cc([N+](=O)[O-])ccc2c(=O)n1S(=O)(=O)c1ccc(Cl)cc1 the melting point was 258 to 260 °C. For CC(C)C1C(=O)C(c2ccc(S(C)(=O)=O)cc2)=C1c1ccccc1 (stereo not drawn), the melting point was 98 °C. In the case of O[C@@H](COc1cccc(-c2noc3ccsc23)c1)CN1CCN(c2ccccc2Cl)CC1, the melting point is reported as 83 to 86 °C. With CCOCc1nc2c(N)nc3cc(-c4cccnc4)ccc3c2n1CCCCNC(=O)OC(C)(C)C the melting point was 117 to 119 °C. Work on Oc1ccc(C2N(c3ccccc3)CCN2c2ccccc2)c2cccnc12 yielded a melting point of 190 to 196 °C. Work on OCc1cnoc1-c1ccc(Cl)c(Cl)c1 yielded a melting point of 101 to 102 °C. For C=CCC1(C)OC(=S)Nc2ccc(-c3cccc(Cl)c3)cc21 (stereo not drawn), the melting point was 150 to 151 °C. CCN(C(=O)C1CC1)c1cccc(-c2ccnc3c(Cl)cnn23)c1 gave a melting point of 150 to 151 °C. Cc1cnc2c(c1)CCCC2C(N)=S (stereo not drawn) gave a melting point of 149 °C. With CC(C)(O)c1ccc(C2CCNCC2)c(F)c1 the melting point was 151 °C. Molecule CCOC(=O)Cc1csc(Nc2ccc(Cl)c(C(F)(F)F)c2)n1 has a melting point of 148 to 150 °C. COc1cc(-c2nn(C)c(C(N)=O)c2C)c(F)cc1Cl showed a melting point of 224 to 226 °C. Work on COc1nc(NC(=N)SC)nc(OC)n1 yielded a melting point of 94 to 100 °C. In the case of COc1ccc2c(c1)C1(O)C(=O)c3ccccc3C1(O)O2 (stereo not drawn), the melting point is reported as 186 to 189 °C. For CCOC(=O)N1CCN(C2=Nc3ccccc3Cc3nccn32)CC1, the melting point was 137 to 139 °C. In the case of C[Si](C)(C)C#Cc1cnn2c(C(F)(F)F)cc(-c3ccc(Cl)cc3)nc12, the melting point is reported as 198 °C. N#Cc1nn(-c2c(Cl)cc(C(F)(F)F)cc2Cl)cc1C(=O)C(F)(F)C(F)(F)C(F)(F)F showed a melting point of 102 to 103 °C. In the case of CCCCCCCCOc1cc(OC)cc(N)c1OCOC, the melting point is reported as 59 °C. With ClC(c1ccccc1)c1ccc(C2CCCCC2)cc1 (stereo not drawn) the melting point was 75 °C. Molecule CNC(=O)c1oc(C(C)(C)C)cc1NC(=O)Nc1ccc(C)cc1 has a melting point of 190 to 193 °C. With C=CCNC1=NS(=O)(=O)c2sc(Cl)cc2N1 the melting point was 217 to 221 °C. For O=C1NC(=O)C2(N1)C(=O)N(Cc1ccc(Cl)c(Cl)c1)c1ccccc12 (stereo not drawn), the melting point was 269 to 271 °C. For CN(CCc1nc(-c2cc(C(C)(C)C)c(O)c(C(C)(C)C)c2)cs1)C(=O)OC(C)(C)C, the melting point was 204 °C. For CCOC(=O)c1nn(-c2ccc(NC)cc2)c(=O)c2c(N)scc12, the melting point was 211 to 213 °C. For CC(=O)c1ccc(OCCCCl)c(C)c1, the melting point was 41.5 to 42.5 °C. Work on O=C(NC1CCC(O)CC1)NC12CC3CC(CC(C3)C1)C2 (stereo not drawn) yielded a melting point of 205 °C. With COC(=O)CCCc1cc2nc(Cl)ccc2n1S(=O)(=O)c1ccc2c(c1)OCCN2C the melting point was 106 to 110 °C. With CCOC(=O)c1cc(C#N)c(=O)[nH]c1C the melting point was 208 to 210 °C. CN(C)C(=O)N1CCC(c2nn(-c3ccc(C(F)(F)F)cc3)c3ccccc23)CC1 showed a melting point of 117 to 119 °C. O=C(O)C1CCCC2CSc3ccccc3C21 (stereo not drawn) gave a melting point of 200 to 203 °C. COC(=O)[C@H](C)N(C(=O)[C@H](CC(C)C)NC(=O)OC(C)(C)C)c1ccc(Cl)c(Cl)c1 gave a melting point of 117 to 119 °C. CC(=O)Nc1ccc(-c2ncc(C(=O)O)c(O)n2)cc1 gave a melting point of over 310 °C. CCc1nc2c(=O)[nH]c(=O)n(C)c2nc1CC gave a melting point of 218 to 222 °C. Fc1ccc(C(C(Br)c2ccccc2)C(F)(F)F)cc1 (stereo not drawn) gave a melting point of 144 to 146 °C. With Oc1ccc(Sc2ccc(-c3ccc(Sc4ccc(O)cc4)cc3)cc2)cc1 the melting point was 214 to 217 °C. CC1(C)Cc2cc(C3=NNC(=O)C4CCC34)ccc2NC1=O (stereo not drawn) gave a melting point of 301 to 302 °C. Work on O=C(O)c1ccc(/C=C/C(=O)c2ccc(-c3cccs3)cc2)cc1 yielded a melting point of 260 to 265 °C. With Cc1ccc(-n2ccc3c(Cl)nn(C)c(=O)c32)c(C)c1 the melting point was 119 to 120 °C. Work on C[C@H]1CCCC(C)(C)[C@@H]1[C@@H](O)c1cccc(Cl)c1 yielded a melting point of 58 to 60 °C. CCOC(=O)c1cccc(NC(=O)N[C@@H]2N=C(c3ccccc3)c3ccccc3N(C)C2=O)c1 showed a melting point of 140 to 142 °C. CC(C)(C)c1cc(Nc2ccc(C=CC(=O)O)cc2)cc(C(C)(C)C)c1O gave a melting point of 199 to 200 °C.
